Results published in publication PMC9311059, “P‐Glycoprotein and Breast Cancer Resistance Protein Transporter Inhibition by Cyclosporine and Quinidine on the Pharmacokinetics of Oral Rimegepant in Healthy Subjects” (Clinical Pharmacology in Drug Development, 2022).
Where “and” joins values, the source holds several entries; their conditions need not be identical. Equal entries are not always repeated. Where two headings read alike, the source gives them in different places.

What was measured:
[1] = Part 2: pharmacokinetics of rimegepant 75 mg ODT alone or coadministered with quinidine 600 mg, 2-way crossover; format: in vivo, human; details: for AUC / Cmax: po, 75 mg; for Tmax: read-out: tmax, median (range)
Experimental: This phase 1, open‐label, randomized, single‐dose, 2‐way crossover, 2‐part, drug‐drug interaction study was conducted at a single center (Syneos Health, Québec, Canada). Subjects were screened within 28 days preceding administration of study medication. In part 1, fasted subjects were randomly assigned to a single dose of rimegepant 75 mg ODT or a single dose of rimegepant 75 mg ODT coadministered with cyclosporine 200 mg (2 × 100‐mg capsules). […] Following the completion of part 1, an interim PK analysis and review of data were performed. […] In part 2, fasted subjects were randomly assigned to a single dose of rimegepant 75 mg ODT or a single dose of rimegepant 75 mg ODT coadministered with quinidine 600 mg (2 × 300‐mg tablets).
In part 1, subjects received 1 of the following treatments under fasting conditions: 1 oral dose of rimegepant 75 mg ODT (Catalent Pharma Solutions, Swindon, UK) or 1 oral dose of rimegepant 75 mg ODT coadministered with cyclosporine 200 mg (Novartis Pharmaceuticals Canada Inc., Dorval, Quebec, Canada). In part 2, subjects received 1 of the following treatments under fasting conditions: 1 oral dose of rimegepant 75 mg ODT alone or 1 oral dose of rimegepant 75 mg ODT coadministered with quinidine 600 mg (Sandoz Inc., West Princeton, New Jersey). In parts 1 and 2, the interval between treatments could not exceed 2 minutes.
For each treatment, subjects were confined from the morning of day −1 until after the 24‐hour postdose blood draw on day 2. Subjects returned for all subsequent blood draws. No food was allowed from at least 10 hours before dosing until at least 4 hours after dosing. Meals were standardized and similar in composition between periods. Except for water given with cyclosporine and quinidine, no fluids were allowed from 1 hour before dosing until 1 hour after dosing. Water was provided ad libitum at all other times. […] When appropriate, subjects were accompanied by a staff member while walking.
In each period, 20 blood samples for PK assessment were collected at the following time points: before dosing; 5, 10, 20, 30, 40, and 50 minutes after dosing; and 1, 1.5, 2, 2.5, 3, 4, 5, 6, 8, 12, 24 (day 2), 48 (day 3), and 72 (day 4) hours after dosing. […] Plasma samples were assayed for rimegepant using ultra‐performance liquid chromatography with tandem mass spectrometry detection (LC‐MS/MS). The quantifiable range was 10 to 5000 ng/mL. Plasma samples containing human ethylenediaminetetraacetic acid (EDTA) K2 plasma as an anticoagulant were processed using automated protein precipitation before LC‐MS/MS analysis. The internal standard was rimegepant‐^13C2d4. The validation was performed using an API 5000 LC/MS/MS system with Analyst software, version 1.6.3 (SCIEX, Framingham, Massachusetts). The pump flow was isocratic, with a flow rate set at 0.600 mL/min. The column was an Acquity UPLC BEH C18, 50×2.1 mm, 1.7 μm (Waters Corporation, Framingham, Massachusetts), which was maintained at a temperature of 60°C and contained Milli‐Q type water/acetonitrile with ammonium acetate and acetic acid. […] Incurred sample reanalysis was carried out on ≈10% of randomly selected samples.
The effects of cyclosporine (part 1) or quinidine (part 2) on the single‐dose PK of rimegepant were evaluated using general linear model procedures in SAS (SAS Institute, Cary, North Carolina). In these evaluations, analysis of variance (ANOVA) model was performed on untransformed tmax, terminal elimination rate constant, and t1/2el and on log‐transformed AUC0‐t, AUC0‐inf, and Cmax at the alpha level of .05. The model included treatment, sequence, and period as fixed effects, and subject nested within sequence as a random effect. Intra‐ and intersubject coefficient of variation were estimated.

[2] = set-up: method as in unpublished; details: rimegepant 75 mg with fluconazole 400 mg once daily for 8 consecutive days; ref unpublished; cited from earlier work
CYP2C9 = tested on: CYP2C9; set-up: method as in ref 7 = [7]; PMID 32058712; doi:10.1021/acs.jmedchem.9b01810; 7 Dubowchik GM , Conway CM , Xin AW . Blocking the CGRP pathway for acute and preventive treatment of migraine: the evolution of success . J Med Chem . 2020; 63 ( 13 ): 6600 ‐ 6623 . 32058712 10.1021; details: implicated in vitro; CYP2C9 allelic variation without significant influence; cited from earlier work
[3] = by quinidine 600 mg, single dose rimegepant 75 mg ODT, vs rimegepant alone
[4] = coadministration with quinidine 600 mg, rimegepant 75 mg

With `N[C@@H]1c2cccnc2[C@H](OC(=O)N2CCC(n3c(=O)[nH]c4ncccc43)CC2)CC[C@H]1c1cccc(F)c1F` [Rimegepant] the “increase in rimegepant AUC0‐inf” value [1, 3] was 54.8% and 55%, the “increase in rimegepant Cmax” value [1, 3] was 66.9% and 67% and the “rimegepant AUC0‐inf geometric mean ratio (90% CI) versus rimegepant alone” value [1, 4] was 1.55 (1.40‐1.72). For the same compound, the “rimegepant Cmax geometric mean ratio (90% CI) versus rimegepant alone” value [1, 4] was 1.67 (1.46‐1.91), the AUC ([1]; human, plasma, part 2, rimegepant 75 mg ODT alone, single oral dose, fasted, plasma, N = 12, read-out: AUC0‐inf, geometric least squares mean) was 4410 ng·h/mL and the AUC ([1]; human, plasma, part 2, rimegepant 75 mg ODT alone, single oral dose, fasted, plasma, N = 12, read-out: AUC0‐t, geometric least squares mean) was 4400 ng·h/mL. The Cmax ([1]; human, plasma, part 2, rimegepant 75 mg ODT alone, single oral dose, fasted, plasma, N = 12, read-out: Cmax, geometric least squares mean) was 797 ng/mL, the AUC ([1]; human, plasma, part 2, rimegepant ODT 75 mg alone, single oral dose, N 12, read-out: AUC0‐inf, arithmetic mean (percent coefficient of variation)) was 4540 ng·h/mL and the AUC ([1]; human, plasma, part 2, rimegepant ODT 75 mg alone, single oral dose, N 12, read-out: AUC0‐t, arithmetic mean (percent coefficient of variation)) was 4520 ng·h/mL. It also gave a Cmax ([1]; human, plasma, part 2, rimegepant ODT 75 mg alone, single oral dose, N 12, read-out: Cmax, arithmetic mean (percent coefficient of variation)) of 829 ng/mL, a Tmax ([1]; human, plasma, part 2, rimegepant ODT 75 mg alone, single oral dose, N 12) of 1.5 h and a half-life ([1]; human, plasma, part 2, rimegepant ODT 75 mg alone, single oral dose, N 12, read-out: t½el, arithmetic mean (percent coefficient of variation) (converted)) of 8.56 h. The Tmax ([1]; human, plasma, part 2, rimegepant ODT 75 mg coadministered with quinidine 600 mg, single oral dose, N 12) was 2.8 h, the “CL/F, arithmetic mean (percent coefficient of variation)” value ([1]; part 2, rimegepant ODT 75 mg alone, single oral dose, N 12) was 17.39 (24.68) L/h and the “difference in geometric mean t1/2el between treatments” value ([1]; part 2, rimegepant with quinidine vs rimegepant alone) was at most 20%. The “change in rimegepant Cmax” value [2] was “no change”, the “increase in rimegepant AUC” value [2] was 80% and the “role of CYP2C9 in metabolism” value (CYP2C9) was “not to be a significant mediator of metabolism in vivo”.
